# From patent US20160152566A1, “TRICYCLIC PYRROLE COMPOUNDS, THEIR PREPARATION AND USE IN MEDICAMENTS” (INSTITUTO BIOMAR, S.A., priority 2013, published 2016)
# Key:
# BAE cells [1] = assay: MTT dye reduction cell growth assay, BAE cells; format: cell-based, Bovine; settings: Bos taurus, 72 h, subconfluent BAE cells stimulated with 10% FBS, 3 days, read-out: IC50, growth of cultured BAE cells
# Method: The 3-(4,5-dimethylthiazol-2-yl)-2,5 diphenyltetrazolium bromide (MIT; Sigma Chemical Co., St. Louis, Mo.) dye reduction assay in 96-well microplates was used. The assay is dependent on the reduction of MTT by mitochondrial dehydrogenases of viable cell to a blue formazan product, which can be measured spectrophotometrically.
# 3×10^3 BAE cells in a total volume of 100 μl of complete medium were incubated in each well with serial dilutions of the compound AD0157 obtained as explained above. After 3 days of incubation in the dark (37° C., 5% CO2 in a humid atmosphere), 10 μl of MTT (5 mg/ml in PBS) was added to each well and the plate was incubated for further 4 h (37° C.). The resulting formazan was dissolved in 150 μl of 0.04 N HCl-2 propanol and read at 550 nm. All determinations were carried out in triplicate, independent experiments. IC50 values were calculated as those concentrations of AD0157 yielding 50% cell survival, taking the values obtained for control as 100%.
# [2] = test system: endothelial and tumor cells; assay: Hoechst staining of nuclear morphology; format: cell-based; settings: 14 h treatment, endothelial and most types of tumor cells
# Method: For Hoechst staining experiments, cells were seeded on 8-well chamber slides and grown to sub-confluence. After treatments for 14 h with the indicated concentrations of the compound in complete medium, cells were washed (PBS) and fixed (formalin solution, Sigma). Chamber slides were stained with Hoechst, mounted (DAKO Cytomation Fluorescent Mounting Medium, DAKO), and observed under a fluorescence microscope (Leica, TCS-NT).
# BAE cells [3] = assay: Capillary tube formation on Matrigel; format: cell-based, Bovine; settings: BAECs, 7 h
# Method: (§1) Matrigel (50 μL of about 10.5 mg/mL) at 4° C. was used to coat each well of a 96-well plate and allowed to polymerise at 37° C. for a minimum of 30 min. 5×10^4 BAE cells were added with 200 μL DMEM. Finally, different amounts of the Compound AD0157 were added and incubated at 37° C. in a humidified chamber with 5% CO2. After incubation for 7 h, cultures were observed (40× and 100× magnifications) and photographed with a NIKON inverted microscope DIAPHOT-TMD (Nikon, Tokyo, Japan). Each concentration was tested in duplicate, and two different observers evaluated the inhibition of tube formation. To check the viability of endothelial cells after the treatment with the compounds in this assay, BAE cells were incubated in 96-well plate in the same conditions employed for the tube formation assay. After 7 h, cell viability in comparison to control untreated cells was determined by the addition of MTT essentially as described for the cell growth assay.
# BAE cells [4] = assay: Viability (MTT) under tube formation conditions; format: cell-based, Bovine; settings: 7 h, at the concentrations used to inhibit differentiation
# Method: as §1
# BAE cells [5] = assay: Tube formation with Cytodex beads on Matrigel; format: cell-based, Bovine; settings: 48 h
# Method: 3×10^4 BAE cells, were cultured with Cytodex beads, and allowed to adhere to them. The beads were added in 200 μL DMEM per well to a 96-well plate that has been previously prepared as follows: different amounts of the compound AD0157 were dispensed in a 96 well plate. Matrigel (50 μL) at 4° C. was used to coat each well of and allowed to polymerise at 37° C. for a minimum of 30 min. After polymerization, the beads carrying the endothelial cells were added to the wells. The plate was incubated at 37° C. in a humidified chamber with 5% CO2. After incubation for 48 h, cultures were observed using an optical microscope. Each concentration was tested in triplicate. Inhibition of tube formation was obtained at 9.3 uM.
# HT1080 MMP-2 = assay: Gelatin zymography, HT1080 cells, MMP-2; format: cell-based, Human; settings: 24 h
# Method: BAE or HT1080 cells were grown in 6-well plates at 75% subconfluency in 6-well plates, medium was aspirated, cells were washed twice with phosphate-buffered saline (PBS) and each well received 1.5 ml of DMEM/0.1% BSA containing 200 KIU of Aprotinin/mL. Additionally, some wells received the indicated concentration of AD0157. After 24 h of incubation, conditioned media were collected. To obtain the cell extracts, the cells were washed twice with PBS and harvested by scrapping into 0.5 mL of 0.2% Triton X-100 in 0.1 M Tris/HCl containing 200 KIU aprotinin/mL. Media were centrifuged at 1000×g and 4° C. for 20 min, and used for zymography. Duplicates were used to determine cell number with a Coulter counter.
# The gelatinolytic activity of MMP-2 delivered to the conditioned media and cell extracts were detected in gelatinograms. Samples were subjected to non-reducing SDS/PAGE as above but with gelatin (1 mg/mL) added to the 10% resolving gel. After electrophoresis, gels were washed twice with 50 mM Tris/HCl, pH 7.4, supplemented with 2% Triton X-100, and twice with 50 mM Tris/HCl, pH 7.4. […] Then, the gels were stained with Commassie blue R-250 and the bands of gelatinase activity could be detected as non-stained bands in a dark, stained background.
# Quantitative analysis of zymograms and gelatinograms was performed with the Scion Image 4.0.3.2 Program.
# HT1080 MMP-9 = assay: Gelatin zymography, HT1080 cells, MMP-9; format: cell-based, Human; settings: 24 h
# [6] = test system: chick chorioallantoic membrane; assay: Chick chorioallantoic membrane (CAM) angiogenesis assay; format: in vivo; settings: 48 h
# Method: Fertilised chick eggs were incubated horizontally at 38° C. in a humidified incubator, windowed by day 3 of incubation, and processed by day 8. The tested compound stock solution was added to a 1.2% solution of methylcellulose in water, and 10 μL drops of this solution were allowed to dry on a teflon-coated surface in a laminar flow hood. Then, the methylcellulose discs were implanted on the CAM, the eggs were sealed with adhesive tape and returned to the incubator for 48 h. Negative controls were always made with DMSO mixed with the methylcellulose. After the reincubation, the CAM was examined under a stereomicroscope. The assay was scored as positive when two independent observers reported a significant reduction of vessels in the treated area.
# [7] = test system: zebrafish intersegmental vessels; assay: Zebrafish embryo intersegmental vessel assay (TGfli1:EGFPy1); format: in vivo; settings: 24 h
# Method: Zebrafish embryos were generated by natural pairwise mating and maintained in embryo water at 28.5° C. […] Embryos were manually dechorionated with forceps at 24 h post-fertilization (hpf), they were arrayed in 96-well plate, one embryo per well, and incubated with 100 μl of the indicated concentrations of the tested compounds at 28.5° C. for 24 h. DMSO was used as both carrier of drugs and control. After incubation, fish embryos were anesthetized with tricaine (0.02%), placed on slides and examined under an epifluorescence Nikon microscope equipped with DS-L1 Nikon digital camera. Phenotypic changes were evaluated by two different observers.
smiles,measurement,setting,value
C/C=C/C(=O)C1(O)CC2CC(C(=O)O)CC(C)C2C1C(=O)C1=C(/C=C/C)C(=O)C2(Cl)C3(CCCCCC)C(=O)NC(=O)C23C1=O (stereo not shown) [AD0157],IC50,BAE cells [1],10.9 µM
same,Concentration inducing chromatin condensation,[2],above 5 μM
same,Concentration giving complete inhibition of endothelial morphogenesis on Matrigel,BAE cells [3],5 µM
same,Concentration giving partial inhibition of endothelial morphogenesis on Matrigel,BAE cells [3],1 µM
same,Viability of endothelial cells,BAE cells [4],did not affect the viability
same,Concentration giving inhibition of tube formation,BAE cells [5],9.3 µM
same,MMP-2 levels in HT1080 conditioned media and cellular extracts,HT1080 MMP-2,no effect
same,MMP-9 levels in HT1080 conditioned media and cellular extracts,HT1080 MMP-9,no effect
same,% Inhibition,[6]; 0.1 nmol/CAM,20%
same,Positive/total,[6]; 0.1 nmol/CAM,1/5
same,% Inhibition,[6]; 0.5 nmol/CAM,83%
same,Positive/total,[6]; 0.5 nmol/CAM,5/6
same,% Inhibition,[6]; 1 nmol/CAM,100%
same,Positive/total,[6]; 1 nmol/CAM,6/6
same,% Inhibition,[6]; 5 nmol/CAM,100%
same,Positive/total,[6]; 5 nmol/CAM,6/6
same,% Inhibition,[7]; 5 μM,25%
same,Positive/total,[7]; 5 μM,5/20
same,% Inhibition,[7]; 10 μM,48%
same,Positive/total,[7]; 10 μM,12/25
same,% Inhibition,[7]; 25 μM,85%
same,Positive/total,[7]; 25 μM,17/20
